Experimental data published in patent US3984410A, “Isourea acetylphosphate insecticides” (priority 1975, dated 1976).
In brackets after ≈: the same amount, converted by molar mass. Read-outs that look alike come from different tables or passages of the source.

Assays:
Format in all cases: in vivo
[1] = test system: Southern House Mosquito [Culex pipiens quinquefasciatus (Say)]; experiment: Southern House Mosquito larvae in aqueous solution; conditions: 48 h, read-out: Insecticide Activity - Approximate LD50, MOS (Southern House Mosquito)
Procedure: Insecticidal activity is determined using third-instar larvae of the mosquito (Culex pipiens quinquefasciatus). Ten larvae are placed in a 6-ounce, number 67 Dixie wax paper cup containing 100 ml of an aqueous solution of the test chemical. The treated larvae are stored at 70°F, and 48 hours later the mortality is recorded. Test concentrations range from 0.5 PPM down to that at which approximately 50% mortality occurs.

[2] = test system: Black Bean Aphid [Aphis fabae (Scop.)]; experiment: Systemic Assay on Black Bean Aphid; conditions: 168 h, read-out: Insecticide Activity - Approximate LD50, BAS (Black Bean Aphid - systemic)
Procedure: Test chemicals are diluted in acetone and aliquots are thoroughly mixed into 500 grams of dry, sandy loam soil. The treated soil is placed in a pint ice cream carton and a nasturtium plant (Tropaeolum sp.) approximately 5 cm tall is transplanted into each carton. The plants are then infested with approximately 25 black bean aphids of mixed ages and placed in the greenhouse. Seven days later mortality is recorded. Test concentrations range from 10 PPM down to that at which approximately 50% mortality occurs.

[3] = test system: German Cockroach [Blattella germanica (Linne)]; experiment: German Cockroach spray
Procedure: Test compounds are diluted in a 50--50 acetone-water solution. Two cc of the solutions are sprayed through a DeVilbiss type EGA hand spray gun into circular cardboard cages containing 10 l-month-old German cockroach nymphs. The test cages are covered on the bottom with cellophane and the top with tulle netting. Percent mortality is recorded 7 days later. Test concentrations range from 0.1% down to that at which approximately 50% mortality occurs.

[4] = test system: Lygus Bug [Lygus hesperus (Knight)]; experiment: Lygus Bug spray; conditions: spray on adult bugs; mortality after 48 hours
Procedure: Test compounds are in a 50--50 acetone-water solution. Two cc of the solutions are sprayed through a Devilbiss type EGA hand spray gun into circular cardboard cages containing one string bean pod and ten adult lygus bugs. The test cages are covered on the bottom with cellophane and the top with tulle netting. Percent mortality is recorded 48 hours later. Test concentrations range from 0.05% down to that at which approximately 50% mortality occurs.

[5] = test system: housefly (Musca domestica L.); experiment: Housefly mortality, residue on aluminum dishes; conditions: 25 3-day old female houseflies; mortality after 48 hours
Procedure: Test compounds are diluted in acetone and aliquots are pipetted onto the bottom of 55 × 15 mm aluminum dishes. To insure even spreading of the chemical on the bottom of the dishes, 1 ml of acetone containing 0.02% peanut oil is also added to each dish. After all solvents have evaporated the dishes are placed in circular cardboard cages containing 25 3-day old female houseflies. The cages are covered on the bottom with cellophane and the top with tulle netting, and each contains a sugar-water saturated cotton plug for maintenance of the flies. Mortality is recorded after 48 hours. Test levels range from 100 μg/25 F. houseflies down to that at which approximately 50% mortality occurs.

[6] = test system: Green Peach Aphid [Myzus persicae (Sulzer)]; experiment: Green Peach Aphid spray on radish plants; conditions: sprayed to runoff on radish plants; mortality after 48 hours
Procedure: Radish plants (Rhaphanus sativus), approximately 2 cm tall, are transplanted into sandy loam soil in 3-inch clay pots and infested with 25-50 green peach aphids of mixed ages. Twenty-four hours later they are sprayed, to the point of runoff, with 50--50 acetone-water solutions of the test chemicals. Treated plants are held in the greenhouse and mortality is recorded after 48 hours. Test concentrations range from 0.05% down to that at which 50% mortality occurs.

[7] = test system: Black Bean Aphid [Aphis fabae (Scop.)]; experiment: Direct Spray Assay on Black Bean Aphid; conditions: direct spray on nasturtium plants; mortality after 7 days
Procedure: Nasturtium plants (Tropaeolum sp.), approximately 5 cm tall, are transplanted into sandy loam soil in 3-inch clay pots and infested with 25-50 black bean aphids of mixed ages. Twenty-four hours later they are sprayed, to the point of runoff, with 50--50 acetone-water solutions of the test chemicals. Treated plants are held in the greenhouse and mortality is recorded after 7 days. Test concentrations range from 0.05% down to that at which 50% mortality occurs.

[8] = test system: Cabbage Looper [Trichoplusia ni (Hubner)]; experiment: Cabbage Looper on dipped squash cotyledons; conditions: second-instar larvae, cotyledon dip; 48 hours plus 5 days
Procedure: (§1) Test compounds are diluted in a 50--50 acetone-water solution. Cotyledons of hyzini squash (Calabacita abobrinha), approximately 1 × 1.5 inches, are immersed in the test solutions for 2-3 seconds and placed on a wire screen to dry. The dried leaves are placed in petri dishes containing a moistened piece of filter paper and infested with five second-instar cabbage looper larvae. Mortality of the larvae is recorded 48 hours later, and a piece of synthetic media is added to dishes containing survivors. These are then held for 5 additional days to observe for any delayed effects of the test chemicals. Test concentrations range from 0.1% down to that at which approximately 50% mortality occurs.

[9] = test system: Tobacco Budworm [Heliothis virescens (F.)]; experiment: Tobacco Budworm on dipped Romaine lettuce leaves; conditions: larvae, Romaine lettuce leaf dip; 48 hours plus 5 days
Procedure: as §1
The procedure is the same as that used for the cabbage looper, except that sections of Romaine lettuce (Latica sativa) leaves were used instead of cotyledons of hyzini squash.

[10] = systemic, chemical in soil, mortality after 7 days
[11] = spray on 1-month-old nymphs, mortality after 7 days

SMILES	LC50 [1] [µg/mL]	LC50 [2, 10] [µg/mL]	Insecticide Activity - Approximate LD50, GR (German Cockroach) [3, 11]	Insecticide Activity - Approximate LD50, LB (Lygus Bug) [4]	Insecticide Activity - Approximate LD50, HF (Housefly) [5] [μg/25 F.]	Insecticide Activity - Approximate LD50, GPA (Green Peach Aphid) [6]	Insecticide Activity - Approximate LD50, BA (Black Bean Aphid - direct spray) [7]	Insecticide Activity - Approximate LD50, CL (Cabbage Looper) [8]	Insecticide Activity - Approximate LD50, TBW (Tobacco Budworm) [9]	LC50 ([2]; soil) [µg/mL]	Insecticide Activity - Approximate LD50, GR (German Cockroach) ([3]; 168 h)
C=CCN(CC=C)C(=NC(=O)CSP(=S)(OCC)OCC)OC [Compound 1, N,N-Diallyl-N'-(O,O-diethylphosphorodithioylacetyl)-O-methylisourea]	1 (≈ 2.63 µM)	3 (≈ 7.88 µM)	> .1%	.05%	10	> .05%	.003%	–	–	–	–
C=CCN(CC=C)C(=NC(=O)CSP(=S)(OC)OC)OC [Compound 2]	> 1	5 (≈ 14.2 µM)	> .1%	> .05%	8	–	.008%	–	–	–	–
CCOP(=S)(OCC)SCC(=O)N=C(OC)N1CCCCC1 [Compound 3]	1 (≈ 2.71 µM)	> 10	> .1%	.05%	25	.008%	.001%	> .1%	> .1%	–	–
CCOP(=S)(OCC)SCC(=O)N=C(OC)N1CCOCC1 [Compound 4, N-morpholino-N'-(O,O-diethylphosphorodithioylacetyl)-O-methylisourea]	> 1	5 (≈ 13.5 µM)	> .1%	.05%	27	> .05%	.0008%	–	–	–	–
CCOP(=S)(OCC)SCC(=O)N=C(OC)N(CC)CC [Compound 5]	> 1	> 10	.1%	> .05%	23	.03%	.001%	> .1%	> .1%	–	–
CCN(CC)C(=NC(=O)CSP(=S)(OC)OC)OC [Compound 6]	> 1	–	> .1%	> .05%	24	> .05%	.05%	> .1%	> .1%	–	–
CCOP(=S)(OCC)SCC(=O)N=C(OC)N(C)c1ccccc1 [Compound 8]	> 1	–	–	> .05%	30	.03%	.0008%	> .1%	.1%	> 1	> .05%
C=CCN(C(=NC(=O)CSP(=S)(OCC)OCC)OC)c1ccccc1 [Compound 10]	> 1	–	> .1%	.05%	10	–	> .05%	> .1%	> .1%	–	–
C=CCN(C(=NC(=O)CSP(=S)(OC)OC)OC)c1ccccc1 [Compound 11]	> 1	> 10	> .1%	> .05%	30	.03%	.005%	> .1%	> .1%	–	–
CCOP(=S)(OCC)SCC(=O)N=C(OC)N(C)Cc1ccccc1 [Compound 12]	> 1	–	> .1%	> .05%	24	–	> .05%	> .1%	> .1%	–	–
COC(=NC(=O)CSP(=S)(OC)OC)N(C)Cc1ccccc1 [Compound 13]	> 1	–	> .1%	> .05%	30	–	> .05%	> .1%	> .1%	–	–
CCN(C(=NC(=O)CSP(=S)(OC)OC)OC)c1ccccc1 [Compound 16]	> 1	> 10	> .1%	> .05%	25	–	.03%	.1%	> .1%	–	–
